This is an account of results in patent publication US11124554B2, “Modified ligand-gated ion channels and methods of use” (Howard Hughes Medical Institute, priority 2016, dated 2021).

In assay [1] the target is T1, α7GlyR Q79S L131G Q139L Y217F (Homo sapiens, UniProt P36544, L131G/Q139L/Q79S/Y217F).
T1 construct: expressed in transfected cells
Description: cell-based.

Assay [2] concerns the target T2, α7GlyR Q79G G175K Y115F R27D E41R (Homo sapiens, UniProt P36544, E41R/G175K/Q79G/R27D/Y115F).
T2 construct: expressed in transfected cells
Description: Agonist potency at chimeric channel. Format: cell-based.

Another assay has as its target T3, α7^Q79A-GlyR (Homo sapiens, UniProt P36544, Q79A).
T3 construct: expressed in transfected cells; host or cells: HEK cells
Description: Agonist potency (EC50), HEK cells expressing chimeric channel. Format: cell-based.

A further assay concerns the target T4, α7GABAc (GABAA-ρ) W298A (Homo sapiens, UniProt P36544, L141F/Q79G).
T4 construct: expressed in transfected cells
In words: Agonist potency at chimeric channel (Table 7). Format: cell-based.

For assay [3], the target named is T5, α7^L131G,Q139L,Y217F-GlyR (Homo sapiens, UniProt P36544, L131G/Q139L/Y217F).
T5 construct: expressed in transfected cells
T5 sequence (P36544 with tags, fused parts or gaps L131G/Q139L/Y217F): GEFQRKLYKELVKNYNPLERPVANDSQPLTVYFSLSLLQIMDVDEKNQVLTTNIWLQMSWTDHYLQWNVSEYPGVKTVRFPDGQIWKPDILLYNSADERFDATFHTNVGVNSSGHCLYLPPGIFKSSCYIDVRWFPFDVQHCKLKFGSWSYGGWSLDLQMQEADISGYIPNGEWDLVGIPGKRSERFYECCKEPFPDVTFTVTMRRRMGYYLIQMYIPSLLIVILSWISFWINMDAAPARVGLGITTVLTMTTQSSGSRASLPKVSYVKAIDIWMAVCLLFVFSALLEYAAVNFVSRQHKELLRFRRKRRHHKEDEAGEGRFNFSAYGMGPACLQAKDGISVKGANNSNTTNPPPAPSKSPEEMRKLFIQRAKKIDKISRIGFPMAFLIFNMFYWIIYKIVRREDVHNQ
Description: cell-based. Format: cell-based.

A further assay deals with T6, α7^W77F,G175K-GlyR (Homo sapiens, UniProt P36544, G175K/W77F).
T6 construct: expressed in transfected cells
T6 sequence (P36544 with tags, fused parts or gaps W77F/G175K): as the sequence (P36544 with tags, fused parts or gaps L131G/Q139L/Y217F) above, with W55F, G109L, L117Q, G153K, F195Y counted along it
In words: Agonist potency at chimeric channel. Format: cell-based.

Another assay addresses T7, α7^Q79G-GlyR^A298G (Homo sapiens, UniProt P36544, A298G/Q79G).
T7 construct: expressed in transfected cells; host or cells: HEK cells
Description: Agonist potency (EC50), HEK cells expressing chimeric channel. Format: cell-based.

In a further assay the target is T8, α7^Q79G-5HT3 (Homo sapiens, UniProt P36544, M226I/Q79G/T225I).
T8 construct: expressed in transfected cells; host or cells: HEK cells
T8 sequence (P36544 with tags, fused parts or gaps Q79G/T225I/M226I): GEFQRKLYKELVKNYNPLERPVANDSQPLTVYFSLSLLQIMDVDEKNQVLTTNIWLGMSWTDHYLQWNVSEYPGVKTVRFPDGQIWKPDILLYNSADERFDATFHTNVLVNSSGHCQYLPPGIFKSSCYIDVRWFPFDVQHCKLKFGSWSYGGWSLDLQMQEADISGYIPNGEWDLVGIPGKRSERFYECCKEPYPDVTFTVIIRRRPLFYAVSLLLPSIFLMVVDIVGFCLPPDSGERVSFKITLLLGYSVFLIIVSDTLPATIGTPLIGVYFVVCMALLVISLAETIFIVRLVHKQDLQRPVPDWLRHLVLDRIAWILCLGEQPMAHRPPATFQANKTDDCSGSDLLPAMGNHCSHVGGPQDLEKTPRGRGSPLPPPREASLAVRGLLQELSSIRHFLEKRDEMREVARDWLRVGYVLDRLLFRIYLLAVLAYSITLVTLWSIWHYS
The description is as above. Format: cell-based, human α7 nAChR LBD, murine 5HT3 IPD. As to conditions: read-out: Mean EC50, α7^Q79G-5HT3.

In the next assay the target is T9, α7^P216I-GlyR (Homo sapiens, UniProt P36544, P216I).
T9 construct: expressed in transfected cells
T9 sequence (P36544 with tags, fused parts or gaps P216I): as the sequence (P36544 with tags, fused parts or gaps L131G/Q139L/Y217F) above, with G109L, L117Q, P194I, F195Y counted along it
Description: Agonist potency at chimeric channel. Format: cell-based.

A further assay has as its target T10, α7^Q79S,L131G,Q139L-GlyR (Homo sapiens, UniProt P36544, L131G/Q139L/Q79S).
T10 construct: expressed in transfected cells
Description: cell-based. Format: cell-based.

The target in assay [4] is T11, α7^R27D,E41R,Q79G,Y115F-GlyR^A298G (Homo sapiens, UniProt P36544, A298G/E41R/Q79G/R27D/Y115F).
T11 construct: expressed in transfected cells; host or cells: HEK cells
T11 sequence (P36544 with tags, fused parts or gaps R27D/E41R/Q79G/Y115F): as the sequence (P36544 with tags, fused parts or gaps L131G/Q139L/Y217F) above, with R5D, E19R, Q57G, Y93F, G109L, L117Q, F195Y, A276G counted along it
In words: Agonist potency (EC50), HEK cells expressing chimeric channel. Format: cell-based. As to conditions: Table 4, read-out: Mean EC50, α7^R27D,E41R,Q79G,115F-GlyR^A298G.

In another assay the target is T12, α7^R27D,E41R-5HT3 (Homo sapiens, UniProt P36544, E41R/M226I/R27D/T225I).
T12 construct: expressed in transfected cells; host or cells: HEK cells
T12 sequence (P36544 with tags, fused parts or gaps R27D/E41R/T225I/M226I limits assumed): as the sequence (P36544 with tags, fused parts or gaps Q79G/T225I/M226I) above, with R5D, E19R, G57Q counted along it
In words: Whole cell recordings in HEK cells. Format: cell-based, human α7 nAChR LBD, murine 5HT3 IPD. As to conditions: V5 epitope tag.

In the next assay the target is T13, α7GlyR Q79G L131G (Homo sapiens, UniProt P36544, L131G/Q79G).
T13 construct: expressed in transfected cells
T13 sequence (P36544 with tags, fused parts or gaps Q79G/L131G): as the sequence (P36544 with tags, fused parts or gaps L131G/Q139L/Y217F) above, with Q57G, L117Q, F195Y counted along it
Description: Agonist potency at chimeric channel (Table 9). Format: cell-based.

The target of the next assay is T14, α7^Q79G,Q139G-5HT3 (Homo sapiens, UniProt P36544, M226I/Q139G/Q79G/T225I).
T14 construct: expressed in transfected cells; host or cells: HEK cells
T14 sequence (P36544 with tags, fused parts or gaps Q79G/Q139G/T225I/M226I): as the sequence (P36544 with tags, fused parts or gaps Q79G/T225I/M226I) above, with Q117G counted along it
In words: Agonist potency (EC50), HEK cells expressing chimeric channel. Format: cell-based, human α7 nAChR LBD, murine 5HT3 IPD. As to conditions: Table 4.

For assay [5], the target named is T15, α7^L131G,Q139L,Y217F-5HT3 HC (Homo sapiens, UniProt P36544, L131G/M226I/Q139L/T225I/Y217F).
T15 construct: expressed in transfected cells
T15 sequence (P36544 with tags, fused parts or gaps L131G/Q139L/Y217F/T225I/M226I limits assumed): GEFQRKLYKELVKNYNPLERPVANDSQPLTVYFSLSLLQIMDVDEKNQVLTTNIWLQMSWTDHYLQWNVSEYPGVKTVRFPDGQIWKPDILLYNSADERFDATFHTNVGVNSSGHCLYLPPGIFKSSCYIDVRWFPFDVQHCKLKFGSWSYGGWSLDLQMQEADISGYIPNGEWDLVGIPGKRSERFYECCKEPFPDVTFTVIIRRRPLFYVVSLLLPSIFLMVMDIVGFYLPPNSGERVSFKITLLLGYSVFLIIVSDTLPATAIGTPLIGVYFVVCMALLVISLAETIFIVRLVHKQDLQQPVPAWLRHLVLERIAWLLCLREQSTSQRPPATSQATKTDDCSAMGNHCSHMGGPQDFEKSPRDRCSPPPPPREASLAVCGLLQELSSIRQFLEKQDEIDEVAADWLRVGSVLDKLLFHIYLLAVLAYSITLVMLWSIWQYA
In words: Agonist potency at chimeric channel (Table 9). Format: cell-based. As to conditions: α75HT3 L131G Q139L Y217F HC.

In another assay the target is T16, α7^Q79G,Y115F-GlyR^A298G (Homo sapiens, UniProt P36544, A298G/Q79G/Y115F).
T16 construct: expressed in transfected cells; host or cells: HEK cells
T16 sequence (P36544 with tags, fused parts or gaps Q79G/Y115F): as the sequence (P36544 with tags, fused parts or gaps L131G/Q139L/Y217F) above, with Q57G, Y93F, G109L, L117Q, F195Y, A276G counted along it
Description: Agonist potency (EC50), HEK cells expressing chimeric channel. Format: cell-based. As to conditions: Table 4.

A further assay addresses T17, α7^Q79G,Y115F-5HT3 (Homo sapiens, UniProt P36544, M226I/Q79G/T225I/Y115F).
T17 construct: expressed in transfected cells; host or cells: HEK cells
The assay is described as above. Format: cell-based, human α7 nAChR LBD, murine 5HT3 IPD. As to conditions: Table 4.

The target in a further assay is T18, α7-GlyR^A298G (Homo sapiens, UniProt P36544, A298G).
T18 construct: expressed in transfected cells; host or cells: HEK cells
T18 sequence (P36544 with tags, fused parts or gaps, stated change not applied): as the sequence (P36544 with tags, fused parts or gaps L131G/Q139L/Y217F) above, with G109L, L117Q, F195Y, A276G counted along it
Described as above. Format: cell-based.

Another assay has as its target T19, α7-GlyR (Homo sapiens, UniProt P36544).
T19 construct: expressed in transfected cells; host or cells: HEK cells
Described as above. Format: cell-based.

The target of a further assay is T20, α7^L131F-GlyR (Homo sapiens, UniProt P36544, L131F).
T20 construct: expressed in transfected cells
T20 sequence (P36544 with tags, fused parts or gaps L131F): as the sequence (P36544 with tags, fused parts or gaps L131G/Q139L/Y217F) above, with G109F, L117Q, F195Y counted along it
Description: Agonist potency at chimeric channel (Table 9). Format: cell-based.

Assay [6] concerns the target T21, α7GlyR W77F Q79G Y115F G175K (Homo sapiens, UniProt P36544, G175K/Q79G/W77F/Y115F).
T21 construct: expressed in transfected cells
Description: Agonist potency at chimeric channel. Format: cell-based.

The next assay has as its target T22, α7^L131G-GABAc (Homo sapiens, UniProt P36544, L131G).
T22 construct: expressed in transfected cells
In words: Agonist potency at chimeric channel (Table 9). Format: cell-based.

Where [7] appears, read: read-out: Agonist potency, a7GlyR.

pEC50: −log10 of the molar value. Like-named read-outs stand apart in the source and are kept apart here.

T19 sequence (P36544 with tags, fused parts or gaps): as the sequence (P36544 with tags, fused parts or gaps L131G/Q139L/Y217F) above, with G109L, L117Q, F195Y counted along it
T7 sequence (P36544 with tags, fused parts or gaps Q79G): as the sequence (P36544 with tags, fused parts or gaps L131G/Q139L/Y217F) above, with Q57G, G109L, L117Q, F195Y, A276G counted along it
T3 sequence (P36544 with tags, fused parts or gaps Q79A): as the sequence (P36544 with tags, fused parts or gaps L131G/Q139L/Y217F) above, with Q57A, G109L, L117Q, F195Y counted along it
T10 sequence (P36544 with tags, fused parts or gaps Q79S/L131G/Q139L): as the sequence (P36544 with tags, fused parts or gaps L131G/Q139L/Y217F) above, with Q57S, F195Y counted along it
T1 sequence (P36544 with tags, fused parts or gaps Q79S/L131G/Q139L/Y217F): as the sequence (P36544 with tags, fused parts or gaps L131G/Q139L/Y217F) above, with Q57S counted along it
T21 sequence (P36544 with tags, fused parts or gaps W77F/Q79G/Y115F/G175K): as the sequence (P36544 with tags, fused parts or gaps L131G/Q139L/Y217F) above, with W55F, Q57G, Y93F, G109L, L117Q, G153K, F195Y counted along it
T2 sequence (P36544 with tags, fused parts or gaps R27D/E41R/Q79G/Y115F/G175K): as the sequence (P36544 with tags, fused parts or gaps L131G/Q139L/Y217F) above, with R5D, E19R, Q57G, Y93F, G109L, L117Q, G153K, F195Y counted along it
T4 sequence (P36544 with tags, fused parts or gaps Q79G/L141F): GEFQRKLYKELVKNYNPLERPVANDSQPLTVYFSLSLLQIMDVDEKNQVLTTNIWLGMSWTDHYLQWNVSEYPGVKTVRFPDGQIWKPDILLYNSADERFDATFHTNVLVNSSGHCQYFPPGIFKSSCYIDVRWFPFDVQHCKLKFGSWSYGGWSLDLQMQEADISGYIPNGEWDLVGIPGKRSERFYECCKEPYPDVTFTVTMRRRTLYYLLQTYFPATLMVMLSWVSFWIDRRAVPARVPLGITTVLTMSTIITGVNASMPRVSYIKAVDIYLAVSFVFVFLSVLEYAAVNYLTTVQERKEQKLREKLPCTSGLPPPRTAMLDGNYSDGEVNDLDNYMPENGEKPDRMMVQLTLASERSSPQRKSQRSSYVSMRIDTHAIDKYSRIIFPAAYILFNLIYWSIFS
T17 sequence (P36544 with tags, fused parts or gaps Q79G/Y115F/T225I/M226I): as the sequence (P36544 with tags, fused parts or gaps Q79G/T225I/M226I) above, with Y93F counted along it
T22 sequence (P36544 with tags, fused parts or gaps L131G): as the sequence (P36544 with tags, fused parts or gaps Q79G/L141F) above, with G57Q, L109G, F119L, A276W counted along it

On to `Clc1ccc(C2CC3CCC2N3)cn1` (stereo not shown) [Epibatidine], for which the pEC50 is 7.66 in assay [1]; 7.23 in [2]; 7.42 at α7^Q79A-GlyR; 6.38 at α7GABAc (GABAA-ρ) W298A; 7.68 in assay [3]; 7.40 at α7^W77F,G175K-GlyR. In addition, the pEC50 at α7^Q79G-GlyR^A298G was 7.49; at α7^Q79G-5HT3 (HEK cells, Table 1) it was 7.30; at α7^P216I-GlyR, 7.52; at α7^Q79S,L131G,Q139L-GlyR, 7.92.
Consider `O=C(NC1CN2CCC1CC2)c1ccc(Cl)cc1` (stereo not shown) [PNU-282987], for which the pEC50 was 7.18 in assay [4]; 7.02 on α7GlyR Q79G L131G; 6.80 at α7^Q79G,Q139G-5HT3; 7.82 in assay [5]; 6.66 on α7^Q79G,Y115F-GlyR^A298G; 6.46 at α7^Q79G,Y115F-5HT3. Besides, the pEC50 was 7.46 at α7-GlyR^A298G; 7.30 in assay [1]; 6.89 at α7-GlyR; 6.89 on α7-GlyR (read-out: Agonist potency); 6.89 at α7-GlyR (setting [7]); 6.89 at α7-GlyR (read-out: α7-GlyR EC50). The pEC50 in assay [2] is 7.30; on α7^Q79A-GlyR, 7.66; in [3], 6.80; on α7^L131F-GlyR, 6.70; in [6] it was less than 6.00; at α7^Q79G-GlyR^A298G it was 8.15. Moreover, the pEC50 on α7^Q79G-GlyR^A298G (read-out: α7^Q79G-GlyR^A298G EC50) was 8.15; on α7^P216I-GlyR it was 7.40. Also, the whole cell response result at α7^R27D,E41R-5HT3 is “potent responses”.
As for `O=c1cccc2n1C[C@@H]1CNC[C@H]2C1` [Cytisine], the pEC50 was less than 4.52 at α7GlyR Q79G L131G; 5.68 at α7-GlyR^A298G; 5.19 at α7-GlyR; 5.19 at α7-GlyR (read-out: Agonist potency); 5.19 on α7-GlyR (setting [7]); less than 3.30 at α7^L131G-GABAc. Further, the pEC50 on α7GABAc (GABAA-ρ) W298A is 4.88; at α7^L131F-GlyR it was 4.98; on α7^W77F,G175K-GlyR it was 5.82; in assay [6] it was 5.40; on α7^Q79G-5HT3 it was 5.77; at α7^Q79S,L131G,Q139L-GlyR, 5.00.
